Laboratory results published in article PMC10548512 (Chemical Science, 2023).

Legend:
[1] = test system: H1N1pdm09 virus (A/Netherlands/602/2009)
[2] = test system: H1 ectodomain; settings: pH 7.5

| Compound | Infection inhibition in single-concentration screen [1] | IC50 ([1]; 1 h) [nM] | Competition with fluorescein-labelled S5 for binding to H1 protein [2] |
| --- | --- | --- | --- |
| CC[C@H](C)[C@@H]1NC(=O)[C@H](CS)NC(=O)[C@H](CO)NC(=O)[C@H](CCCNC(=N)N)NC(=O)[C@H](CCCNC(=N)N)NC(=O)[C@H](Cc2ccc(O)cc2)NC(=O)[C@H](CCC(N)=O)NC(=O)[C@H](Cc2ccccc2)NC(=O)[C@H](CC(N)=O)NC(=O)[C@H](CC(C)C)NC(=O)[C@@H]2CSC(=N2)c2cc(ccn2)C[C@@H](C(=O)NCC(N)=O)NC(=O)[C@H](CC(N)=O)NC(=O)[C@H](CC(C)C)NC(=O)[C@H]([C@@H](C)CC)NC(=O)[C@H](CC(N)=O)NC(=O)[C@H](CC(C)C)NC1=O [M3] | clear infection inhibition | 120 | compete |
| H-CLNFQYRRSCILNILNBG-NH2 (disulfide) [M4] | did not show inhibition |  |  |
| H-CYYFTHSIFNNLIVFHBG-NH2 (sidechain bridge or staple) [M8] | minimal to no activity |  | showed competition |
